Patent publication US9957297B2, “Template-fixed peptidomimetics as inhibitors of FPR1” (POLYPHOR AG, priority 2011, dated 2018)
Where a SMILES comes first, the peptide text is derived from it. Bridges are numbered along the chain shown (N, C = ends). [ ]: non-standard residue; d: D form. Pro(4R-NH2) = N[C@H]1CN[C@H](C(=O)O)C1; Dab = NCC[C@H](N)C(=O)O

Target: T1, FPR1 (Homo sapiens, UniProt P21462)
T1 construct: host or cells: CHO (PathHunter CHO-FPR1 β-arrestin cells)
T1 sequence (P21462 1-350): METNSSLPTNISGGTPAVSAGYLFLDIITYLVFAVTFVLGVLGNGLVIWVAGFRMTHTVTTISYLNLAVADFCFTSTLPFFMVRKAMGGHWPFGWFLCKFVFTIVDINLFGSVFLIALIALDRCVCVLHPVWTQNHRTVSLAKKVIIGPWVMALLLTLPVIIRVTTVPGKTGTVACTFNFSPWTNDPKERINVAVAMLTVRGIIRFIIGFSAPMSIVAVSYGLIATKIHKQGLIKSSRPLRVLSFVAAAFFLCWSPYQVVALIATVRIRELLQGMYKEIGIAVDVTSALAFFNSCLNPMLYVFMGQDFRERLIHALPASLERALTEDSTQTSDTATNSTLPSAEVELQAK
Assay: FPR1 β-arrestin recruitment assay (PathHunter CHO-FPR1, antagonistic mode)
Type: cell-based
Settings: CHO FPR1 β-arrestin cells; antagonistic assay vs reference agonist fMLF at its EC80; 60 min preincubation
Description: 2.2 FPR1 β-Arrestin Recruitment Assay
The PathHunter CHO—FPR1 (DiscoverX) assay was performed according to the manufacturer's protocol. In brief, CHO FPR1 β-arrestin cells were seeded at a density of 9000 cells per well in 20 μl of Ham's F12 medium (Invitrogen) in black 384-well culture plates and incubated overnight at 37° C. in a humidified atmosphere with 5% CO2. The next day, serial dilutions of the β-hairpin peptidomimetics of this invention have been prepared in DMSO and subsequently diluted in HBSS buffer supplemented with 20 mM Hepes and 0.1% BSA.
For antagonistic assay, 5 μl of compound solution or buffer was added to the cells with a final DMSO concentration of 0.5% (v/v). The plate was incubated for 60 min at 37° C. with 5% CO2 before addition of […] of the reference agonist fMLF peptide (Sigma-Aldrich) at its EC80 concentration. After 90 min of incubation at 37° C. with 5% CO2, 15 μl of beta-Glo detection reagent (Promega) were added. Reaction was developed for 20 min at room temperature and chemiluminescence was measured with a Victor2V (Perkin Elmer) luminescence reader.

| Structure (SMILES) | IC50 |
| --- | --- |
| CC[C@H](C)[C@@H]1NC(=O)[C@H]([C@@H](C)O)NC(=O)[C@H](Cc2c[nH]c3ccccc23)NC(=O)[C@H]2CCCN2C(=O)CNC(=O)[C@H](Cc2c[nH]c3ccccc23)NC(=O)[C@@H]2CSSC[C@H](NC1=O)C(=O)N[C@@H]([C@@H](C)O)C(=O)N[C@@H](CCC(N)=O)C(=O)N[C@@H](CCCCN)C(=O)N1CCC[C@@H]1C(=O)N1CCC[C@H]1C(=O)N[C@@H](Cc1ccc(O)cc1)C(=O)N[C@@H](Cc1c[nH]cn1)C(=O)N[C@@H](C)C(=O)N2 [compound 34, cyclo(-Tyr-His-Ala-Cys-Trp-Gly-^DPro-Trp-Thr-Ile-Cys-Thr-Gln-Lys-^DPro-Pro-)] (cyclo(YHACWG[dP]WTICTQK[dP]P); disulfide 4-11) | 685 ± 68 nM |
| CC[C@H](C)[C@@H]1NC(=O)[C@H]([C@@H](C)O)NC(=O)[C@H](Cc2c[nH]c3ccccc23)NC(=O)[C@H]2CCCN2C(=O)CNC(=O)[C@H](Cc2c[nH]c3ccccc23)NC(=O)[C@@H]2CSSC[C@H](NC1=O)C(=O)N[C@@H](Cc1ccc(O)cc1)C(=O)N[C@@H](CCC(=O)O)C(=O)N[C@@H](CCCCN)C(=O)N[C@H](C)C(=O)N1CCC[C@H]1C(=O)N[C@@H](Cc1ccc(O)cc1)C(=O)N[C@@H](Cc1c[nH]cn1)C(=O)N[C@@H](CCCCN)C(=O)N2 [compound 42, cyclo(-Tyr-His-Lys-Cys-Trp-Gly-^DPro-Trp-Thr-Ile-Cys-Tyr-Glu-Lys-^DAla-Pro-)] (cyclo(YHKCWG[dP]WTICYEK[dA]P); disulfide 4-11) | 126 ± 78 nM |
| CC[C@H](C)[C@@H]1NC(=O)[C@H]([C@@H](C)O)NC(=O)[C@H](Cc2c[nH]c3ccccc23)NC(=O)[C@H]2CCCN2C(=O)CNC(=O)[C@H](Cc2c[nH]c3ccccc23)NC(=O)[C@@H]2CSSC[C@H](NC1=O)C(=O)N[C@@H](Cc1ccc(O)cc1)C(=O)N[C@@H](CCC(=O)O)C(=O)N[C@@H](CCCCN)C(=O)N[C@H](CCCCN)C(=O)N1CCC[C@H]1C(=O)N[C@@H](Cc1ccc(O)cc1)C(=O)N[C@@H](Cc1c[nH]cn1)C(=O)N[C@@H](CCCCN)C(=O)N2 [compound 43, cyclo(-Tyr-His-Lys-Cys-Trp-Gly-^DPro-Trp-Thr-Ile-Cys-Tyr-Glu-Lys-^DLys-Pro-)] (cyclo(YHKCWG[dP]WTICYEK[dK]P); disulfide 4-11) | 126 ± 53 nM |
| CC[C@H](C)[C@@H]1NC(=O)[C@H]([C@@H](C)O)NC(=O)[C@H](Cc2c[nH]c3ccccc23)NC(=O)[C@H]2CCCN2C(=O)CNC(=O)[C@H](Cc2c[nH]c3ccccc23)NC(=O)[C@@H]2CSSC[C@H](NC1=O)C(=O)N[C@@H](Cc1ccc(O)cc1)C(=O)N[C@@H](CCC(=O)O)C(=O)N[C@@H](CCCCN)C(=O)N1CCC[C@@H]1C(=O)N1CCC[C@H]1C(=O)N[C@@H](Cc1ccc(O)cc1)C(=O)N[C@@H](Cc1c[nH]cn1)C(=O)N[C@@H](CCCCN)C(=O)N2 [compound 51, cyclo(-Tyr-His-Lys-Cys-Trp-Gly-^DPro-Trp-Thr-Ile-Cys-Tyr-Glu-Lys-^DPro-Pro-)] (cyclo(YHKCWG[dP]WTICYEK[dP]P); disulfide 4-11) | 54 ± 21 nM |
| CC[C@H](C)[C@@H]1NC(=O)[C@H]([C@@H](C)O)NC(=O)[C@H](Cc2c[nH]c3ccccc23)NC(=O)[C@H]2CCCN2C(=O)CNC(=O)[C@H](Cc2c[nH]cn2)NC(=O)[C@@H]2CSSC[C@H](NC1=O)C(=O)N[C@@H](Cc1ccc(O)cc1)C(=O)N[C@@H](CCC(=O)O)C(=O)N[C@@H](CCN)C(=O)N1CCC[C@@H]1C(=O)N1CCC[C@H]1C(=O)N[C@@H](Cc1ccc(O)cc1)C(=O)N[C@@H](Cc1c[nH]cn1)C(=O)N[C@@H](CCCCN)C(=O)N2 [compound 56, cyclo(-Tyr-His-Lys-Cys-His-Gly-^DPro-Trp-Thr-Ile-Cys-Tyr-Glu-Dab-^DPro-Pro-)] (cyclo(YHKCHG[dP]WTICYE[Dab][dP]P); disulfide 4-11) | 82 ± 29 nM |
| CC[C@H](C)[C@@H]1NC(=O)[C@H]([C@@H](C)O)NC(=O)[C@H](Cc2c[nH]c3ccccc23)NC(=O)[C@H]2CCCN2C(=O)CNC(=O)[C@H](Cc2c[nH]cn2)NC(=O)[C@@H]2CSSC[C@H](NC1=O)C(=O)N[C@@H](Cc1ccc(O)cc1)C(=O)N[C@@H](CCC(=O)O)C(=O)N[C@@H](CCCCN)C(=O)N1CCC[C@@H]1C(=O)N1CCC[C@H]1C(=O)N[C@@H](CC(=O)O)C(=O)N[C@@H](Cc1c[nH]cn1)C(=O)N[C@@H](CCCCN)C(=O)N2 [compound 66, cyclo(-Asp-His-Lys-Cys-His-Gly-^DPro-Trp-Thr-Ile-Cys-Tyr-Glu-Lys-^DPro-Pro-)] (cyclo(DHKCHG[dP]WTICYEK[dP]P); disulfide 4-11) | 177 ± 28 nM |
| CC[C@H](C)[C@@H]1NC(=O)[C@H]([C@@H](C)O)NC(=O)[C@H](Cc2c[nH]c3ccccc23)NC(=O)[C@@H](C)NC(=O)CNC(=O)[C@H](Cc2c[nH]cn2)NC(=O)[C@@H]2CSSC[C@H](NC1=O)C(=O)N[C@@H](Cc1ccc(O)cc1)C(=O)N[C@@H](CCC(=O)O)C(=O)N[C@@H](CCCCN)C(=O)N1CCC[C@@H]1C(=O)N1CCC[C@H]1C(=O)N[C@@H](Cc1ccc(O)cc1)C(=O)N[C@@H](Cc1c[nH]cn1)C(=O)N[C@@H](CCCCN)C(=O)N2 [compound 71, cyclo(-Tyr-His-Lys-Cys-His-Gly-^DAla-Trp-Thr-Ile-Cys-Tyr-Glu-Lys-^DPro-Pro-)] (cyclo(YHKCHG[dA]WTICYEK[dP]P); disulfide 4-11) | 77 ± 4 nM |
| CC[C@H](C)[C@@H]1NC(=O)[C@H]([C@@H](C)O)NC(=O)[C@H](Cc2c[nH]c3ccccc23)NC(=O)[C@H]2CCCN2C(=O)CNC(=O)[C@H](Cc2c[nH]cn2)NC(=O)[C@@H]2CSSC[C@H](NC1=O)C(=O)N[C@@H](Cc1ccc(O)cc1)C(=O)N[C@@H](CCC(=O)O)C(=O)N[C@@H](CCCCN)C(=O)N1CCC[C@@H]1C(=O)N1C[C@H](N)C[C@H]1C(=O)N[C@@H](Cc1ccc(O)cc1)C(=O)N[C@@H](Cc1c[nH]cn1)C(=O)N[C@@H](CCCCN)C(=O)N2 [compound 83, cyclo(-Tyr-His-Lys-Cys-His-Gly-^DPro-Trp-Thr-IIe-Cys-Tyr-Glu-Lys-^DPro-Pro((4R)NH2)-)] (cyclo(YHKCHG[dP]WTICYEK[dP][Pro(4R-NH2)]); disulfide 4-11) | 82 ± 51 nM |
| CC[C@H](C)[C@@H]1NC(=O)[C@H]([C@@H](C)O)NC(=O)[C@H](Cc2c[nH]c3ccccc23)NC(=O)[C@H]2CCCN2C(=O)CNC(=O)[C@H](Cc2c[nH]c3ccccc23)NC(=O)[C@@H]2CSSC[C@H](NC1=O)C(=O)N[C@@H](Cc1ccc(O)cc1)C(=O)N[C@@H](CCC(=O)O)C(=O)N[C@@H](CCCCN)C(=O)N1CCC[C@@H]1C(=O)N[C@@H](CCCCN)C(=O)N[C@@H](Cc1ccc(O)cc1)C(=O)N[C@@H](Cc1c[nH]cn1)C(=O)N[C@@H](CCCCN)C(=O)N2 [compound 87, cyclo(-Tyr-His-Lys-Cys-Trp-Gly-^DPro-Trp-Thr-Ile-Cys-Tyr-Glu-Lys-^DPro-Lys-)] (cyclo(YHKCWG[dP]WTICYEK[dP]K); disulfide 4-11) | 54 ± 21 nM |
